From patent US12714680B2, “Composition for anti-aging or skin regeneration comprising Okanin” (POSCO CO., LTD, priority 2020, dated 2026)

Key:
Type in all cases: cell-based
EGFR = EGFR (Homo sapiens, UniProt P00533); test: EGFR activity measurement biosensor system (EGFP-SH2 fluorescence signals); conditions: 100 μM Okanin; cells cultured in serum-free medium 24 hours; compared to DMSO control; FIG. 1
Method: In addition, by using the feature that, when the activities of the EGFR continue to be maintained, the EGFR is internalized into the cell, the cell of the biosensor system that may measure the activities of the EGFR was used in the present experimentation (see Korean Laid-open Patent Publication No. 2019-0014340). […] After culturing the cells in a serum-free medium for 24 hours, the cells were treated with Okanin.

HaCaT cells [1] = test: Cytotoxicity depending on the concentrations of Okanin (cell viability)
Method: The cytotoxicity of Okanin was measured using HaCaT cells as keratinocytes. When cells are treated with MTT tetrazolium which is a yellow water-soluble substrate, such a substrate is reduced to MTT formazan by mitochondrial enzymes, and the color changes to blue-purple. That is, since the blue-violet color appears darker as the number of living cells increases, the blue-violet absorbance at a wavelength of 540 nm reflects the concentration of living cells. Specifically, after culturing cells to fill each well of a 96-well plate, the cells were treated with Okanin at concentrations of 0, 10, 25, 50 and 100 μM, and cultured for 24 hours and 48 hours in a 5% CO2 incubator at 37° C. Thereafter, cell viability was measured using MIT reagent. A control group not treated with Okanin (0 μM) was treated with the same amount of the solvent DMSO.

ERK = test: Activation (phosphorylation) of ERK by Western blotting in HaCaT cells; conditions: serum-free medium, FIG. 3
Method: (§1) It is well known that the activities of extracellular signal-regulated kinase (ERK) and protein kinase B (AKT) transmit signals necessary for cell growth and survival by the activities of an EGFR. In addition, in Experimental Example 1, it was observed that Okanin generated signals due to activation of the EGFR in the cells of the biosense system for measuring the activities of the EGFR. Accordingly, it was measured whether the activities of the EGFR were induced by Okanin to the activities of the ERK and AKT. Specifically, HaCaT cells were cultured in a serum-free medium, treated with 10 μM. of Okanin for 10 minutes, 30 minutes and 60 minutes, respectively, and, thereafter, phosphorylated and activated ERK and AKT were analyzed by Western blotting. As antibodies, a phosphorylation antibody as a marker of activated ERK and AKT, and a general antibody for measuring all of them were used, respectively.

AKT = test: Activation (phosphorylation) of AKT by Western blotting in HaCaT cells; conditions: serum-free medium, FIG. 3
Method: as §1

egr1 = test: Gene expression change by real-time quantitative PCR in HaCaT cells: egr1; conditions: 10 μM Okanin, 1 hour, serum-free, corrected with β-actin, FIG. 4
From the text: (§2) Signaling by an EGFR induces the expression of genes important for cell growth and survival through important signaling mediator proteins such as ERK and AKT. The egr1, c-myc, c-jun and c-fos genes are regulated by the EGFR and are well known as genes that promote cell growth and survival. […] Specifically, Tri-reagent was used for mRNA extraction, cDNA was created by a reverse transcription polymerase chain reaction (RT-PCR) using a poly-A primer and a reverse transcriptase, and real-time quantitative PCR was used to measure the amount of each mRNA. The amount of each mRNA was corrected with the amount of β-actin, which is a constitutive gene.

c-myc = test: Gene expression change by real-time quantitative PCR in HaCaT cells: c-myc; conditions: 10 μM Okanin, 1 hour, serum-free, corrected with β-actin, FIG. 4
From the text: as §2

c-jun = test: Gene expression change by real-time quantitative PCR in HaCaT cells: c-jun; conditions: 10 μM Okanin, 1 hour, serum-free, corrected with β-actin, FIG. 4
From the text: as §2

c-fos = test: Gene expression change by real-time quantitative PCR in HaCaT cells: c-fos; conditions: 10 μM Okanin, 1 hour, serum-free, corrected with β-actin, FIG. 4
From the text: as §2

HaCaT cells [2] = test: Growth and proliferation of keratinocytes (CCK-8 assay); conditions: 24 hours, serum-free, vs negative control (DMSO), p<0.05, FIG. 5
Method: Cell counting kit-8 (CCK-8) is a water-soluble tetrazolium salt reagent called WST-8 and forms orange-colored water-soluble Formazan by dehydrogenase in the mitochondria of living cells. […] After cultured for 24 hours, the cells were treated with CCK8, and the cell growth was analyzed by measuring absorbance at 450 nm.

HaCaT cells [3] = test: Wound healing assay; conditions: 1 μM Okanin, culture for 6 days, serum-free; vs negative control; significant difference from the 3rd day (p<0.05); FIGS. 6A, 6B
Method: The cell growth promoting effect of Okanin was confirmed through Wound healing assay. Specifically, after fully culturing HaCaT cells in a 12-well plate, cells on a certain area were scraped off using a yellow tip to form a wound area, changed to a serum-free medium, and treated with 1 μM of Okanin.

HaCaT cells [4] = test: Resistance to cell damage induced by UVB (cell viability, CCK-8); conditions: 1 μM Okanin, UVB 500 mJ/cm2, serum-free, negative control about 40%, p<0.05, FIG. 7
Method: Among the ultraviolet wavelengths, UVB wavelengths corresponding to 280 to 315 nm penetrate the epidermal layer where many keratinocytes exist to cause cell damage. […] The solvent DMSO was used as a negative control group, and the cell viability was measured using the CCK-8 method used in Experimental Example 5.

Chain of EGFR (P00533 25-1210, species assumed): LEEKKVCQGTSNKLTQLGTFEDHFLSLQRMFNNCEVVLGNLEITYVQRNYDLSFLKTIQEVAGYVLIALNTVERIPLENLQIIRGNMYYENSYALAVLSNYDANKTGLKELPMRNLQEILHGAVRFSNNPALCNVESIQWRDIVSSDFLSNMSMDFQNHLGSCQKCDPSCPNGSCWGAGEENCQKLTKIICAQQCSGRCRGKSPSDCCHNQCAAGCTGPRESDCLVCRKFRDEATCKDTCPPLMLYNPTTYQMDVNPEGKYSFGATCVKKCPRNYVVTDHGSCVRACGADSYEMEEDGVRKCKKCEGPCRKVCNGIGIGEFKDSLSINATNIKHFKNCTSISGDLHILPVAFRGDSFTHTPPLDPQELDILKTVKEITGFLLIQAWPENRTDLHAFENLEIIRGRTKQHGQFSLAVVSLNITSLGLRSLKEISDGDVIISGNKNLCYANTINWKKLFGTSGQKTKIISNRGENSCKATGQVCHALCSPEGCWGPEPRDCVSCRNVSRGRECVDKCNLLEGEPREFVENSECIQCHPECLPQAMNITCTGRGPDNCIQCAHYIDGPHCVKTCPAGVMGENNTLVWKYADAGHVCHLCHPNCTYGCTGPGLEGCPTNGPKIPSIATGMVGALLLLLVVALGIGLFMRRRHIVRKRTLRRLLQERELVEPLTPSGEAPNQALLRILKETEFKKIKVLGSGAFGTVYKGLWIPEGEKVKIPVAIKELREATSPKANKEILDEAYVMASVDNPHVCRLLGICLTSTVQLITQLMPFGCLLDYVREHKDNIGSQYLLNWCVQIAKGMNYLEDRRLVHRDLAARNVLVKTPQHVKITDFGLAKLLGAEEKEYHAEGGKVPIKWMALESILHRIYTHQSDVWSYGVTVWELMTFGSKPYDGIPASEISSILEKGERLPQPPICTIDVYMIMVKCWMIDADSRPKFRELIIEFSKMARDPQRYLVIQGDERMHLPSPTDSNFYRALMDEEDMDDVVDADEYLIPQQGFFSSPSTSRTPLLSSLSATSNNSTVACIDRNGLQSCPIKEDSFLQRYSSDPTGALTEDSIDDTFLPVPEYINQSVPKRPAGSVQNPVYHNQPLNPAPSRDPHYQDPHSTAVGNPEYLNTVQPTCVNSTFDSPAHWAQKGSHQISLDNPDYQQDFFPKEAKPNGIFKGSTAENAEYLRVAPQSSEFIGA

## O=C(/C=C/c1ccc(O)c(O)c1)c1ccc(O)c(O)c1O [Okanin, 2′,3,3′,4,4′-pentahydroxychalcone]
EGFR
  EGFR activation (fluorescence signals of biosensor cells): activated
HaCaT cells [1]; 25 μM, cultured 24 hours and 48 hours, FIG. 2
  cytotoxicity: some cytotoxicity
HaCaT cells [1]; 50 μm, cultured 24 hours and 48 hours, FIG. 2
  cytotoxicity: some cytotoxicity
HaCaT cells [1]; concentration of 10 μM or less
  cytotoxicity: free of cytotoxicity
ERK; 10 μM Okanin for 10 minutes
  induction of the activities of ERK: sufficiently induced
ERK; 10 μM Okanin
  time within which ERK was rapidly activated: ≤ 30 min
AKT; 10 μM Okanin for 10 minutes
  induction of the activities of AKT: sufficiently induced
AKT; 10 μM Okanin
  time within which AKT was rapidly activated: ≤ 30 min
egr1
  egr1 mRNA: increased
c-myc
  c-myc mRNA: increased
c-jun
  c-jun mRNA: increased
c-fos
  c-fos mRNA: increased
HaCaT cells [2]; 100 nM Okanin
  growth and proliferation of cells: significantly increased
HaCaT cells [2]; 1 μM Okanin
  growth and proliferation of cells: significantly increased
HaCaT cells [2]; 10 μM Okanin
  growth and proliferation of cells: significantly increased
HaCaT cells [3]
  filling of the wound area: more quickly filled
HaCaT cells [4]
  cells survived after UVB: about 60%
